Experimental data published in US5190741A, “Agents for diagnosing and treating melanomas, aromatic halogenated derivatives usable as such agents and their preparation” (Institut National de la Sante et de la Recherche Medicale …, priority 1989, dated 1993).
Like-named read-outs stand apart in the source and are kept apart here.

Tests used:
B16 melanoma = assay: Scintillation imaging, C57 BL6 mice bearing B16; type: in vivo, mouse; conditions: ^123 I label
Excerpt: (§1) The mice bearing grafted tumors are anesthetized by the i.p. injection of sodium pentobarbital 1/5 and immobilized under a scintillation camera (Gammatome II, CGR) equipped with a pinhole 3-360 collimator, sensitivity 3.2 10^-4.
C57 BL6 bearing B16 melanomas at different stages of development.
(§2) The scanning observations have also been carried out after the injection of B into the following mice:
C57 BL6 bearing the B16 melanoma

[1] = LD50 determination, i.v. (Karber and Behrens); conditions: mouse, in vivo, iv
Excerpt: (§3) The determination of the LD50 is made in the mouse after i.v. injection of the molecules according to the methodology described by Karber and Behrens.
(§4) 6 weeks old OF 1 male mice

[2] = tested on: 6 weeks old OF 1 male mice; assay: LD50 determination, i.v. (Karber and Behrens); conditions: mouse, in vivo, iv
Excerpt: as §3, §4

B16 murine melanoma = assay: Autoradiograms, C57 BL6 mice bearing B16; type: in vivo, mouse
Description: The autoradiograms are carried out in mice bearing grafted melanomas:
a. C57 BL6 bearing the B16 murine melanoma.
The animals bearing grafted tumors receive the labelled compounds in the form of the hydrochloride in saline solution (3.7 to 5×10^5 Bq/animal) in a caudal vein. At different time intervals after the administration of the compounds (from 15 minutes to 24 hours) the mice are anesthetized with ether and plunged into liquid nitrogen.
30 μm sections, parallel to a sagittal plane, are prepared in a freezing microtome (TS 260, SLEE) according to the protocol described by Ullberg.

[3] = Tissue distribution in Swiss nu/nu SSCUP mice bearing Dau; type: in vivo, human; conditions: mouse, iv, 3 umol/animal
Description: The study of the tissue distribution of the ^125 I labelled compounds was performed in mice bearing grafted melanomas (cf. autoradiograms above). […] The animals are sacrificed at different time intervals of 1 to 24 hours after the injection. The blood is collected and the principal organs are excised. Aliquots are weighed and the radioactivity of the samples is measured in a […] 1191 counter (analytic tracer). The counting yield for iodine 125 is 60%. The results are expressed: as a percentage of the injected dose bound per g of tissue (% ID/g); in the form of the ratios [formula] This ratio reflects more precisely the selectivity of a molecule for an organ (tables 2, 4, 6, 8, 10 and 12).

[4] = tested on: Beu melanic human melanoma; assay: Scintillation imaging, nu/nu SSCUP nude mice bearing Beu; type: in vivo; conditions: ^123 I label
Excerpt: as §1
nu/nu SSCUP nudes bearing human melanomas Beu and Dau.
as §2
nu/nu SSCUP nudes bearing the Beu heterotransplant.

[5] = intestine, read-out: intestine % ID/g
[6] = kidney, read-out: kidney % ID/g
[7] = muscle, read-out: muscle % ID/g
[8] = pancreas, read-out: pancreas % ID/g
[9] = plasma, read-out: plasma % ID/g
[10] = spleen, read-out: spleen % ID/g
[11] = stomach, read-out: stomach % ID/g
[12] = submaxillary glands, read-out: submaxillary glands % ID/g

CCN(CC)CCNC(=O)c1ccc(I)cc1 [Derivative A, N-(2-diethylaminoethyl) 4-iodo benzamide]
images compared with ^125 I-A (B16 melanoma): identical images
LD50 [1]: 125 mg/kg
LD 0 [2]: 75 mg/kg
LD 100 [2]: 150 mg/kg
darkening of the film at the tumor (B16 murine melanoma; 1 to 4 h after i.v.): considerable and inhomogeneous darkening of the film
tumor visibility on autoradiogram (B16 murine melanoma; 24 h after i.v.): still visible
tissue uptake at 1 h ([3]; blood, read-out: blood % ID/g): 0.89 %ID/g
tissue uptake at 2 h ([3]; blood, read-out: blood % ID/g): 0.52 %ID/g
tissue uptake at 4 h ([3]; blood, read-out: blood % ID/g): 0.29 %ID/g
tissue uptake at 6 h ([3]; blood, read-out: blood % ID/g): 0.23 %ID/g
tissue uptake at 24 h ([3]; blood, read-out: blood % ID/g): 0.008 %ID/g
tissue uptake at 8 h ([3]; blood, read-out: blood % ID/g): 0.14 %ID/g
tissue uptake at 12 h ([3]; blood, read-out: blood % ID/g): 0.06 %ID/g
tissue uptake at 1 h ([3]; brain, read-out: brain % ID/g): 1.4 %ID/g
tissue uptake at 2 h ([3]; brain, read-out: brain % ID/g): 0.99 %ID/g
tissue uptake at 4 h ([3]; brain, read-out: brain % ID/g): 0.51 %ID/g
tissue uptake at 6 h ([3]; brain, read-out: brain % ID/g): 0.2 %ID/g
tissue uptake at 24 h ([3]; brain, read-out: brain % ID/g): 0.002 %ID/g
tissue uptake at 8 h ([3]; brain, read-out: brain % ID/g): 0.12 %ID/g
tissue uptake at 12 h ([3]; brain, read-out: brain % ID/g): 0.02 %ID/g
tissue uptake at 1 h ([3]; eye, read-out: eye % ID/g): 0.68 %ID/g
tissue uptake at 2 h ([3]; eye, read-out: eye % ID/g): 0.54 %ID/g
tissue uptake at 4 h ([3]; eye, read-out: eye % ID/g): 0.31 %ID/g
tissue uptake at 6 h ([3]; eye, read-out: eye % ID/g): 0.16 %ID/g
tissue uptake at 24 h ([3]; eye, read-out: eye % ID/g): 0.02 %ID/g
tissue uptake at 8 h ([3]; eye, read-out: eye % ID/g): 0.1 %ID/g
tissue uptake at 12 h ([3]; eye, read-out: eye % ID/g): 0.04 %ID/g
tissue uptake at 1 h [3, 5]: 3.74 %ID/g
tissue uptake at 2 h [3, 5]: 2.67 %ID/g
tissue uptake at 4 h [3, 5]: 1.1 %ID/g
tissue uptake at 6 h [3, 5]: 0.42 %ID/g
tissue uptake at 8 h [3, 5]: 0.38 %ID/g
tissue uptake at 12 h [3, 5]: 0.27 %ID/g
tissue uptake at 24 h [3, 5]: 0.01 %ID/g
tissue uptake at 1 h [3, 6]: 8.39 %ID/g
tissue uptake at 2 h [3, 6]: 5.12 %ID/g
tissue uptake at 4 h [3, 6]: 2.15 %ID/g
tissue uptake at 6 h [3, 6]: 0.78 %ID/g
tissue uptake at 24 h [3, 6]: 0.03 %ID/g
tissue uptake at 8 h [3, 6]: 0.32 %ID/g
tissue uptake at 12 h [3, 6]: 0.14 %ID/g
tissue uptake at 1 h ([3]; liver, read-out: liver % ID/g): 5.68 %ID/g
tissue uptake at 2 h ([3]; liver, read-out: liver % ID/g): 3.35 %ID/g
tissue uptake at 4 h ([3]; liver, read-out: liver % ID/g): 2.1 %ID/g
tissue uptake at 6 h ([3]; liver, read-out: liver % ID/g): 1.1 %ID/g
tissue uptake at 24 h ([3]; liver, read-out: liver % ID/g): 0.1 %ID/g
tissue uptake at 8 h ([3]; liver, read-out: liver % ID/g): 0.71 %ID/g
tissue uptake at 12 h ([3]; liver, read-out: liver % ID/g): 0.3 %ID/g
tissue uptake at 1 h ([3]; lungs, read-out: lungs % ID/g): 6.88 %ID/g
tissue uptake at 2 h ([3]; lungs, read-out: lungs % ID/g): 5.63 %ID/g
tissue uptake at 4 h ([3]; lungs, read-out: lungs % ID/g): 2.84 %ID/g
tissue uptake at 6 h ([3]; lungs, read-out: lungs % ID/g): 0.76 %ID/g
tissue uptake at 8 h ([3]; lungs, read-out: lungs % ID/g): 0.45 %ID/g
tissue uptake at 12 h ([3]; lungs, read-out: lungs % ID/g): 0.11 %ID/g
tissue uptake at 24 h ([3]; lungs, read-out: lungs % ID/g): 0.02 %ID/g
tissue uptake at 1 h [3, 7]: 1.28 %ID/g
tissue uptake at 2 h [3, 7]: 0.79 %ID/g
tissue uptake at 4 h [3, 7]: 0.32 %ID/g
tissue uptake at 6 h [3, 7]: 0.11 %ID/g
tissue uptake at 24 h [3, 7]: 0.006 %ID/g
tissue uptake at 8 h [3, 7]: 0.07 %ID/g
tissue uptake at 12 h [3, 7]: 0.02 %ID/g
tissue uptake at 1 h [3, 8]: 4.06 %ID/g
tissue uptake at 2 h [3, 8]: 2.29 %ID/g
tissue uptake at 4 h [3, 8]: 0.97 %ID/g
tissue uptake at 6 h [3, 8]: 0.41 %ID/g
tissue uptake at 8 h [3, 8]: 0.24 %ID/g
tissue uptake at 12 h [3, 8]: 0.13 %ID/g
tissue uptake at 24 h [3, 8]: 0.03 %ID/g
tissue uptake at 1 h [3, 9]: 0.55 %ID/g
tissue uptake at 2 h [3, 9]: 0.33 %ID/g
tissue uptake at 4 h [3, 9]: 0.24 %ID/g
tissue uptake at 6 h [3, 9]: 0.24 %ID/g
tissue uptake at 24 h [3, 9]: 0.007 %ID/g
tissue uptake at 8 h [3, 9]: 0.15 %ID/g
tissue uptake at 12 h [3, 9]: 0.06 %ID/g
tissue uptake at 1 h [3, 10]: 3.48 %ID/g
tissue uptake at 2 h [3, 10]: 1.95 %ID/g
tissue uptake at 4 h [3, 10]: 0.8 %ID/g
tissue uptake at 6 h [3, 10]: 0.3 %ID/g
tissue uptake at 8 h [3, 10]: 0.16 %ID/g
tissue uptake at 12 h [3, 10]: 0.07 %ID/g
tissue uptake at 24 h [3, 10]: 0.02 %ID/g
tissue uptake at 1 h [3, 11]: 2.32 %ID/g
tissue uptake at 2 h [3, 11]: 1.85 %ID/g
tissue uptake at 4 h [3, 11]: 1.36 %ID/g
tissue uptake at 6 h [3, 11]: 1.17 %ID/g
tissue uptake at 8 h [3, 11]: 0.71 %ID/g
tissue uptake at 12 h [3, 11]: 0.38 %ID/g
tissue uptake at 24 h [3, 11]: 0.03 %ID/g
tissue uptake at 1 h [3, 12]: 4.75 %ID/g
tissue uptake at 2 h [3, 12]: 3.56 %ID/g
tissue uptake at 4 h [3, 12]: 1.5 %ID/g
tissue uptake at 6 h [3, 12]: 0.86 %ID/g
tissue uptake at 8 h [3, 12]: 0.77 %ID/g
tissue uptake at 12 h [3, 12]: 0.3 %ID/g
tissue uptake at 24 h [3, 12]: 0.02 %ID/g
tissue uptake at 1 h ([3]; tumor, read-out: tumor % ID/g): 1.51 %ID/g
tissue uptake at 2 h ([3]; tumor, read-out: tumor % ID/g): 1.29 %ID/g
tissue uptake at 4 h ([3]; tumor, read-out: tumor % ID/g): 0.45 %ID/g
tissue uptake at 6 h ([3]; tumor, read-out: tumor % ID/g): 0.23 %ID/g
tissue uptake at 24 h ([3]; tumor, read-out: tumor % ID/g): 0.009 %ID/g
tissue uptake at 8 h ([3]; tumor, read-out: tumor % ID/g): 0.11 %ID/g
tissue uptake at 12 h ([3]; tumor, read-out: tumor % ID/g): 0.07 %ID/g
tissue uptake ([3]; tumor, only during the 2 hours following injection, Dau, read-out: intratumoral concentration): > 1 %ID/g
images compared with ^125 I-A [4]: identical images
